Several values for one entry are separate records, joined by “and”; a condition that tells them apart may be missing. Equal entries are not always repeated. Numbers after ± are expanded uncertainties. One block for each compound: values may come before it.
Assay: wn = mass fraction of the nth substance listed
Details: 101 kPa, Liquid, Vibrating tube method

- mass density (303.15 K, w1 = 0.158): 1037.8 ± 1 kg/m3 and 1038 ± 1 kg/m3
- mass density (313.15 K, w1 = 0.187): 1042.8 ± 1.1 kg/m3
SMILES: O=C(O)c1ccccc1C(=O)O [1,2-benzenedicarboxylic acid] + CN1CCCC1=O

- mass density (303.15 K, w1 = 0.1624): 1036.1 ± 1 kg/m3
- mass density (313.15 K, w1 = 0.1957): 1038.5 ± 7.6 kg/m3
SMILES: O=C(O)c1cccc(C(=O)O)c1 [1,3-benzenedicarboxylic acid] + CN1CCCC1=O

- mass density (303.15 K, w1 = 0.05896): 1029.5 ± 1 kg/m3
- mass density (313.15 K, w1 = 0.08754): 1031.5 ± 1 kg/m3 and 1038.5 ± 1 kg/m3
SMILES: O=C(O)c1ccc(C(=O)O)cc1 [1,4-benzenedicarboxylic acid] + CN1CCCC1=O
